Assay results published in the supplement of paper PMC11451515.

Tested on: NOMO1
Experiment: cell viability relative to DMSO control; higher = less cytotoxic
Settings: 48 h
Method in brief: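 Viability values are per-plate percentages of DMSO wells, with background from cell-free wells. Library compounds in DMSO were pin-dosed, in an 11-point threefold series from 47 μM to 0.79 nM, onto NOMO1 or SEM (500 cells/well) or P12-Ichikawa (1000 cells/well) leukemia cells in 1536-well plates (5 μl). Those cells had been adapted for at least four passages in each medium, and CellTiter-Glo One luminescence was read after 48 h at 37°C.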

[1] = HPLM + 10% dialyzed FBS, 0.000781 µM
[2] = HPLM + 10% dialyzed FBS, 0.00234 µM
[3] = HPLM + 10% dialyzed FBS, 0.00702 µM
[4] = HPLM + 10% dialyzed FBS, 0.0211 µM
[5] = HPLM + 10% dialyzed FBS, 0.0632 µM
[6] = HPLM + 10% dialyzed FBS, 0.19 µM
[7] = HPLM + 10% dialyzed FBS, 0.569 µM
[8] = HPLM + 10% dialyzed FBS, 1.71 µM
[9] = HPLM + 10% dialyzed FBS, 5.12 µM
[10] = HPLM + 10% dialyzed FBS, 15.4 µM
[11] = HPLM + 10% dialyzed FBS, 46.1 µM
[12] = RPMI 5 mM glucose + 10% FBS, 0.000781 µM
[13] = RPMI 5 mM glucose + 10% FBS, 0.00234 µM
[14] = RPMI 5 mM glucose + 10% FBS, 0.00702 µM
[15] = RPMI 5 mM glucose + 10% FBS, 0.0211 µM
[16] = RPMI 5 mM glucose + 10% FBS, 0.0632 µM
[17] = RPMI 5 mM glucose + 10% FBS, 0.19 µM
[18] = RPMI 5 mM glucose + 10% FBS, 0.569 µM
[19] = RPMI 5 mM glucose + 10% FBS, 1.71 µM
[20] = RPMI 5 mM glucose + 10% FBS, 5.12 µM
[21] = RPMI 5 mM glucose + 10% FBS, 15.4 µM
[22] = RPMI 5 mM glucose + 10% FBS, 46.1 µM
[23] = RPMI 5 mM glucose + 10% dialyzed FBS, 0.000781 µM
[24] = RPMI 5 mM glucose + 10% dialyzed FBS, 0.00234 µM
[25] = RPMI 5 mM glucose + 10% dialyzed FBS, 0.00702 µM
[26] = RPMI 5 mM glucose + 10% dialyzed FBS, 0.0211 µM
[27] = RPMI 5 mM glucose + 10% dialyzed FBS, 0.0632 µM
[28] = RPMI 5 mM glucose + 10% dialyzed FBS, 0.19 µM
[29] = RPMI 5 mM glucose + 10% dialyzed FBS, 0.569 µM
[30] = RPMI 5 mM glucose + 10% dialyzed FBS, 1.71 µM
[31] = RPMI 5 mM glucose + 10% dialyzed FBS, 5.12 µM
[32] = RPMI 5 mM glucose + 10% dialyzed FBS, 15.4 µM
[33] = RPMI 5 mM glucose + 10% dialyzed FBS, 46.1 µM

SMILES	cell viability [1]	cell viability [2]	cell viability [3]	cell viability [4]	cell viability [5]	cell viability [6]	cell viability [7]	cell viability [8]	cell viability [9]	cell viability [10]	cell viability [11]	cell viability [12]	cell viability [13]	cell viability [14]	cell viability [15]	cell viability [16]	cell viability [17]	cell viability [18]	cell viability [19]	cell viability [20]	cell viability [21]	cell viability [22]	cell viability [23]	cell viability [24]	cell viability [25]	cell viability [26]	cell viability [27]	cell viability [28]	cell viability [29]	cell viability [30]	cell viability [31]	cell viability [32]	cell viability [33]
COc1cc([C@@H](CC(=O)O)c2ccc(C)c(CN3C[C@@H](C)Oc4ccccc4[S+]3(=O)[O-])c2)cc2nnn(C)c12	123%	120%	111%	121%	110%	118%	96.8%	119%	66.6%	30.3%	26.5%	114%	117%	117%	98.7%	97.1%	102%	104%	99.3%	92.4%	90.3%	91.1%	102%	118%	116%	104%	113%	99.5%	100%	101%	86.2%	79.6%	75.4%
Cc1nc2cc(C(=O)N3CCC4(CC3)CC(=O)c3c(cnn3C(C)C)C4)ccc2[nH]1	96.7%	159%	125%	124%	116%	135%	134%	119%	112%	135%	60.9%	118%	133%	116%	130%	129%	124%	123%	128%	135%	132%	94.2%	–	–	–	–	–	–	–	–	–	–	–
CCOC(=O)N1c2ccc(C(F)(F)F)cc2[C@@H](N(Cc2cc(C(F)(F)F)cc(C(F)(F)F)c2)C(=O)OC)C[C@H]1CC	124%	149%	123%	118%	124%	139%	110%	109%	120%	105%	110%	121%	117%	105%	118%	129%	113%	115%	111%	114%	112%	107%	110%	117%	121%	115%	121%	110%	103%	112%	119%	109%	93.7%
Cc1cn([C@H]2C=C[C@@H](CO)O2)c(=O)[nH]c1=O	105%	101%	116%	123%	101%	114%	125%	115%	96.4%	108%	107%	88.6%	94.3%	100%	106%	98.7%	111%	111%	102%	116%	120%	115%	106%	124%	118%	112%	125%	123%	122%	121%	113%	129%	131%
COC(=O)Nc1nc2cc(C(=O)c3ccc(F)cc3)ccc2[nH]1	103%	113%	102%	104%	102%	103%	84.7%	54.9%	32.9%	52.2%	40.3%	107%	98.1%	91.4%	95.3%	101%	97.5%	98.6%	83.8%	34.8%	83.8%	83.9%	99.3%	103%	94.1%	107%	89.3%	93%	90.9%	65.3%	31.9%	74.1%	72.9%
CCOC(=O)[C@@]1(CCCCCCOc2ccc(Cl)cc2)CO1	–	–	–	–	–	–	–	–	–	–	–	120%	118%	109%	107%	108%	115%	106%	106%	96.5%	86.7%	48.1%	117%	117%	114%	112%	111%	111%	113%	108%	107%	96%	56.8%
